Earlier results as cited in patent publication US11690800B2, “Non-irritating, non-blurring, photostable ophthalmic sunscreen composition” (A. EBBIE SOROUDI, M.D., M.S., A PROFESSIONAL MEDICAL …, priority 2014, dated 2023).

Columns and labels:
[1] = formulated into a dermatologic sunscreen
[2] = oil phase and water phase of a sunscreen

skin penetration [1]: minimal skin penetration | dissolution in oil or water phase [2]: dissolves poorly in both
SMILES: CC(C)(C)CC(C)(C)c1cc(Cc2cc(C(C)(C)CC(C)(C)C)cc(-n3nc4ccccc4n3)c2O)c(O)c(-n2nc3ccccc3n2)c1 [Bisoctrizole, 2,2′-methanediylbis[6-(2H-benzotriazol-2-yl)-4-(2,4,4-trimethylpentan-2-yl)phenol]]
